Laboratory results taken from ChEMBL document CHEMBL5223080, “Discovery of Pyrrole-imidazole Polyamides as PD-L1 Expression Inhibitors and Their Anticancer Activity via Immune and Nonimmune Pathways” (J Med Chem, 2021).
One block for each compound: values may come before it. The source made the active and inactive calls. The rule behind the calls is not given here.

Experiments:
MDA-MB-231 [1] = assay: Antitumour activity against human MDA-MB-231 cells assessed as measuring interleukin-2 levels by ELISA; format: functional
MDA-MB-231 [2] = assay: (§1) Induction of T-cell mediated cytotoxicity against human MDA-MB-231 cells co-cultured with Jurkat cells assessed as apoptotic cells at 8 uM incubated for 36 hrs by standard CCK-8 assay relative to control; format: functional
HCC827 [3] = assay: (§2) Induction of T-cell mediated cytotoxicity against human HCC827 cells co-cultured with Jurkat cells assessed as apoptotic cells at 8 uM incubated for 36 hrs by standard CCK-8 assay relative to control; format: functional
MDA-MB-231 [4] = assay: Inhibition of PD-L1 protein expression in IFNgamma-induced human MDA-MB-231 cells measured for 36 hrs by Western blot analysis; format: functional, cell-based; details: dose 1.25-10 µM
Jurkat = assay: Cytotoxicity against human Jurkat cells at 8 uM incubated for 36 hrs by standard CCK-8 assay; format: toxicity, cell-based
Homo sapiens [5] = species on record: Homo sapiens; assay: Binding affinity to DNA STAT3 binding site of PD-L1 promoter region assessed as effect on binding of STAT3 protein to STAT3 binding site of PD-L1 promoter region by competitive electrophoretic mobility shift assay
HCC827 [6] = assay: Antitumour activity against human HCC827 cells assessed as measuring interleukin-2 levels by ELISA; format: functional
MDA-MB-231 [7] = assay: (§3) Induction of T-cell mediated cell killing in human MDA-MB-231 cells co-cultured with PMA-activated Jurkat T cells assessed as IL-2 production at 8 uM by ELISA relative to control; format: functional
[8] = Binding affinity to DNA STAT3 binding site of PD-L1 promoter region (unknown origin) by electrophoretic mobility shift assay
MDA-MB-231 [9] = assay: Cytotoxicity against human MDA-MB-231 cells incubated for 36 hrs by standard CCK-8 assay; format: functional, cell-based; details: for IC50: MDA-MB-231, 36 h; for Activity: dose 2-32 µM
MRC5 = assay: Cytotoxicity against human MRC5 cells at 32 uM by standard CCK-8 assay; format: toxicity, cell-based; details: mrc5, 32 µM
[10] = Binding affinity to human single stranded DNA (unknown origin) by electrophoretic mobility shift assay
HCC827 [11] = assay: Cytotoxicity against human HCC827 cells incubated for 36 hrs by standard CCK-8 assay; format: functional, cell-based; details: for IC50: HCC827, 36 h; for Activity: dose 2-32 µM
HCC827 [12] = assay: Inhibition of PD-L1 protein expression in IFNgamma-induced human HCC827 cells measured for 36 hrs by Western blot analysis; format: functional, cell-based; details: dose 1.25-10 µM
dsDNA [13] = assay: Binding affinity to human wild-type double stranded DNA assessed as thermal stability of compound-DNA complex by measuring change in melting temperature at stoichiometry ratio 1:4 by UV melting assay; format: nucleic-acid assay
dsDNA [14] = assay: Binding affinity to human wild-type double stranded DNA assessed as thermal stability of compound-DNA complex by measuring change in melting temperature at stoichiometry ratio 1:0.5 by UV melting assay; format: nucleic-acid assay
HCC827 [15] = assay: (§4) Induction of T-cell mediated cell killing in human HCC827 cells co-cultured with PMA-activated Jurkat T cells assessed as IL-2 production at 8 uM by ELISA relative to control; format: functional
dsDNA [16] = assay: Binding affinity to human wild-type double stranded DNA assessed as thermal stability of compound-DNA complex by measuring change in melting temperature at stoichiometry ratio 1:1 by UV melting assay; format: nucleic-acid assay
DNA [17] = assay: Binding affinity to wild type 28 nucleotide double stranded DNA (unknown origin) in PD-L1 gene promotor region at 1:1 compound to DNA ratio incubated for 24 hrs by Circular Dichroism assay; format: nucleic-acid assay
HCC827 [18] = assay: Antimigratory activity in human HCC827 cells assessed as inhibition rate at 0.5 to 1 uM measured after 48 hrs by Wound healing assay relative to control; format: functional; set-up: scale not given: the % may be the effect or the level left; details: dose 0.5-1 µM
MDA-MB-231 [19] = assay: Induction of apoptosis in human MDA-MB-231 cells co-cultured with human Jurkat T cells at 8 uM relative to control; format: functional
dsDNA [20] = assay: Binding affinity to human mutant double stranded DNA assessed as thermal stability of compound-DNA complex by measuring change in melting temperature at stoichiometry ratio 1:1 by UV melting assay; format: nucleic-acid assay
[21] = as §1; format: functional
dsDNA [22] = assay: Binding affinity to human mutant double stranded DNA assessed as thermal stability of compound-DNA complex by measuring melting change in temperature at stoichiometry ratio 1:4 by UV melting assay; format: nucleic-acid assay
[23] = as §2; format: functional
[24] = Binding affinity to DNA STAT3 binding site of PD-L1 promoter region (unknown origin) assessed as disappearance of band of wild-type double stranded DNA-STAT3 protein complex at > 8 uM by competitive electrophoretic mobility shift assay
HCC827 [25] = assay: Induction of apoptosis in human HCC827 cells assessed as inhibition of pro-caspase 3 at 10 uM by Western blot analysis; format: functional, cell-based
dsDNA [26] = assay: Binding affinity to human mutant double stranded DNA assessed as thermal stability of compound-DNA complex by measuring melting temperature change in at stoichiometry ratio 1:0.5 by UV melting assay; format: nucleic-acid assay
Homo sapiens [27] = species on record: Homo sapiens; assay: Binding affinity to 5'-biotin-double stranded DNA (unknown origin) assessed as saturation of the compound-DNA complex at 350 to 500 nM by surface plasmon resonance; details: dose 350-500 nM
DNA [28] = assay: Binding affinity to wild type double stranded DNA (unknown origin) at 1:1 compound to DNA ratio incubated for 24 hrs at 340 nm by Circular Dichroism assay; format: nucleic-acid assay
DNA [29] = assay: Binding affinity to wild-type double stranded DNA (unknown origin) by assessed as decrease in compound-DNA complex at >=8 uM by competitive electrophoretic mobility shift assay; format: nucleic-acid assay
MDA-MB-231 [30] = assay: Inhibition of PD-L1 mRNA expression in IFNgamma-induced human MDA-MB-231 cells measured for 36 hrs by qRT-PCR analysis; format: functional, cell-based; details: dose 1.25-10 µM
dsDNA [31] = assay: Binding affinity to human 5'-biotin-double stranded DNA assessed as dissociation rate constant by surface plasmon resonance; format: nucleic-acid assay
[32] = as §3; format: functional
MDA-MB-231 [33] = assay: Antimigratory activity in human MDA-MB-231 cells assessed as inhibition rate at 2 uM measured after 48 hrs by Wound healing assay relative to control; format: functional; set-up: scale not given: the % may be the effect or the level left
HCC827 [34] = assay: Inhibition of PD-L1 mRNA expression in IFNgamma-induced human HCC827 cells measured for 36 hrs by qRT-PCR analysis; format: functional, cell-based; details: dose 1.25-10 µM
dsDNA [35] = assay: Binding affinity to human 5'-biotin-double stranded DNA assessed as dissociation equilibrium constant by surface plasmon resonance; format: nucleic-acid assay
HCC827 [36] = assay: Induction of apoptosis in human HCC827 cells assessed as inhibition of Akt phosphorylation at 10 uM by Western blot analysis; format: functional, cell-based
MDA-MB-231 [37] = assay: Induction of apoptosis in human MDA-MB-231 cells assessed as inhibition of pro-caspase 3 at 10 uM by Western blot analysis; format: functional, cell-based
HCC827 [38] = assay: Antimigratory activity in human HCC827 cells assessed as inhibition rate at 2 uM measured after 48 hrs by Wound healing assay relative to control; format: functional; set-up: scale not given: the % may be the effect or the level left
MDA-MB-231 [39] = assay: Antimigratory activity in human MDA-MB-231 cells assessed as inhibition rate at 0.5 to 1 uM measured after 48 hrs by Wound healing assay relative to control; format: functional; set-up: scale not given: the % may be the effect or the level left; details: dose 0.5-1 µM
DNA [40] = assay: Binding affinity to wild type double stranded DNA (unknown origin) incubated for 24 hrs by Circular Dichroism assay; format: nucleic-acid assay
MDA-MB-231 [41] = assay: Induction of apoptosis in human MDA-MB-231 cells assessed as inhibition of Akt phosphorylation at 10 uM by Western blot analysis; format: functional, cell-based
[42] = as §4; format: functional
dsDNA [43] = assay: Binding affinity to human 5'-biotin-double stranded DNA assessed as association rate constant by surface plasmon resonance; format: nucleic-acid assay
HCC827 [44] = assay: Induction of apoptosis in human HCC827 cells co-cultured with human Jurkat T cells at 8 uM relative to control; format: functional

Activity (Homo sapiens [5]): inactive
Activity [8]: inactive
Activity [10]: inactive
ΔTm (dsDNA [13]): 0.7 °C
ΔTm (dsDNA [14]): 0.2 °C
ΔTm (dsDNA [16]): 0.4 °C
SMILES: CC(=O)Nc1cc(C(=O)Nc2cc(C(=O)Nc3cc(C(=O)Nc4cn(C)c(C(=O)NCCC(=O)Nc5cn(C)c(C(=O)NCCCC(=O)Nc6cc(C(=O)Nc7cc(C(=O)NCCC(=O)Nc8cn(C)c(C(=O)Nc9cn(C)c(C(=O)Nc%10cc(C(=O)NCCC(=O)NCCCN(C)C)n(C)c%10)n9)n8)n(C)c7)n(C)c6)n5)n4)n(C)c3)n(C)c2)n(C)c1.Cl
Activity (MDA-MB-231 [1]): inactive
Activity (MDA-MB-231 [2]): inactive
Activity (HCC827 [3]): inactive
inhibition (MDA-MB-231 [4]): inactive
Activity (Jurkat): Non-Toxic
Activity (HCC827 [6]): inactive
Activity (MDA-MB-231 [7]): inactive
IC50 (MDA-MB-231 [9]): > 200 µM
Activity (MDA-MB-231 [9]): inactive
Activity (MRC5): Non-Toxic
IC50 (HCC827 [11]): > 200 µM
Activity (HCC827 [11]): inactive
inhibition (HCC827 [12]): inactive
Activity (HCC827 [15]): inactive

Activity (DNA [17]): Active
ΔTm (dsDNA [20]): 0.2 °C
ΔTm (dsDNA [22]): 0.4 °C
Activity [24]: Active
ΔTm (dsDNA [26]): 0.1 °C
Activity (Homo sapiens [27]): Active
Activity (DNA [28]): Active
Activity (DNA [29]): Active
Kd (dsDNA [31]): 32.3 10^-2/s
Kd (dsDNA [35]): 0.0499 µM
Activity [10]: inactive
ΔTm (dsDNA [13]): 7.3 °C
ΔTm (dsDNA [14]): 2.9 °C
Activity (DNA [40]): Active
Ka (dsDNA [43]): 6.47 10^6/M/s
ΔTm (dsDNA [16]): 7 °C
SMILES: CC(=O)Nc1cc(C(=O)Nc2cc(C(=O)Nc3cc(C(=O)Nc4cn(C)c(C(=O)Nc5cn(C)c(C(=O)NCCC(=O)Nc6cn(C)c(C(=O)NCCCC(=O)Nc7cc(C(=O)Nc8cc(C(=O)Nc9cc(C(=O)NCCC(=O)Nc%10cc(C(=O)Nc%11cn(C)c(C(=O)Nc%12cc(C(=O)NCCC(=O)NCCCN(C)C)n(C)c%12)n%11)n(C)c%10)n(C)c9)n(C)c8)n(C)c7)n6)n5)n4)n(C)c3)n(C)c2)n(C)c1.Cl
Activity (HCC827 [18]): 50%
Activity (MDA-MB-231 [19]): 30.84%
Activity (MDA-MB-231 [1]): 87.89 pg/mL
Activity [21]: 82.11%
Activity [23]: 70%
inhibition (MDA-MB-231 [4]): Dose-Dependent Effect
Activity (Jurkat): Non-Toxic
inhibition (HCC827 [25]): Active
Activity (HCC827 [6]): 51.17 pg/mL
inhibition (MDA-MB-231 [30]): Dose-Dependent Effect
Activity [32]: 60.35%
Activity (MDA-MB-231 [33]): 86.33%
inhibition (HCC827 [34]): Dose-Dependent Effect
IC50 (MDA-MB-231 [9]): 9.05 µM
Activity (MDA-MB-231 [9]): Dose-Dependent Effect
Activity (MRC5): Non-Toxic
IC50 (HCC827 [11]): 11.8 µM
Activity (HCC827 [11]): Dose-Dependent Effect
inhibition (HCC827 [12]): Dose-Dependent Effect
Activity (HCC827 [36]): Active
inhibition (MDA-MB-231 [37]): Active
Activity (HCC827 [38]): >70%
Activity (MDA-MB-231 [39]): 50%
Activity (MDA-MB-231 [41]): Active
Activity [42]: 57%
Activity (HCC827 [44]): 269.14%
